Reference: ChEMBL document CHEMBL1833847, “Identification of potent c-Src inhibitors strongly affecting the proliferation of human neuroblastoma cells” (Bioorg Med Chem Lett, 2011)
In brackets after ≈: the same amount, converted by molar mass. Activity calls are given as the source filed them. The calls are words filed in the database; no cut-off is given here.

Experiments:
[1] = biological target: T1, Tyrosine-protein kinase ABL1 (Homo sapiens, UniProt P00519); assay: Inhibition human recombinant Abl using Abtide peptide substrate at 100 uM in presence of [gamma-32P]-ATP
[2] = Permeability of the compound at pH 7.4 after 5 hrs using porcine polar brain lipid by PAMPA-BBB assay; type: ADME; settings: pig; for Papp at 5 h: PAMPA, pH 7.4, read-out: permeability
[3] = biological target: Tyrosine-protein kinase HCK (Homo sapiens, UniProt P08631); assay: Inhibition human recombinant HcK using KVEKIGEGTYGVVYK peptide substrate in presence of [gamma-32P]-ATP
SH-SY5Y [4] = assay: Antiproliferative activity against human SH-SY5Y cells assessed as cell viability at 0.01 to 10 uM by XTT assay; type: functional, cell-based; settings: TDE = time-dependent effect
[5] = biological target: Proto-oncogene tyrosine-protein kinase Src (Homo sapiens, UniProt P12931); assay: Inhibition human recombinant cSRC using KVEKIGEGTYGVVYK peptide substrate in presence of [gamma-32P]-ATP
[6] = biological target: Serine/threonine-protein kinase pim-1 (Homo sapiens, UniProt P11309); assay: Inhibition human recombinant Pim1 using KKRNRLTLTV peptide substrate in presence of [gamma-32P]-ATP
HS27 = assay: Antiproliferative activity against human HS27 cells assessed as retardation in proliferation rate at 10 uM after 72 hrs by XTT assay; type: cell-based; settings: hs27, 72 h
[7] = Metabolic stability in human liver microsomes at 50 uM at pH 7.4 using NADPH by LC-UV-MS method; type: ADME, Microsome; settings: read-out: Stability
SH-SY5Y [8] = assay: Antiproliferative activity against human SH-SY5Y cells assessed as cell viability after 72 hrs by XTT assay
[9] = Aqueous solubility of the compound after 24 to 36 hrs by LC-MS-MS assay; type: physicochemical; settings: buffer
SH-SY5Y [10] = assay: cells; settings: Homo sapiens, 72 h
SH-SY5Y [11] = assay: Antiproliferative activity against human SH-SY5Y cells assessed as growth reduction at 10 uM after 72 hrs; type: functional; parameters: scale not given: the % may be the effect or the level left
Focal adhesion kinase 1 = Focal adhesion kinase 1 (Homo sapiens, UniProt Q05397)
Description: Inhibition human recombinant FAK using Poly(Glu,Tyr) substrate in presence of [gamma-32P]-ATP

[12] = biological target: T2, Receptor-type tyrosine-protein kinase FLT3 (Homo sapiens, UniProt P36888)
T2 sequence (P36888 whole entry): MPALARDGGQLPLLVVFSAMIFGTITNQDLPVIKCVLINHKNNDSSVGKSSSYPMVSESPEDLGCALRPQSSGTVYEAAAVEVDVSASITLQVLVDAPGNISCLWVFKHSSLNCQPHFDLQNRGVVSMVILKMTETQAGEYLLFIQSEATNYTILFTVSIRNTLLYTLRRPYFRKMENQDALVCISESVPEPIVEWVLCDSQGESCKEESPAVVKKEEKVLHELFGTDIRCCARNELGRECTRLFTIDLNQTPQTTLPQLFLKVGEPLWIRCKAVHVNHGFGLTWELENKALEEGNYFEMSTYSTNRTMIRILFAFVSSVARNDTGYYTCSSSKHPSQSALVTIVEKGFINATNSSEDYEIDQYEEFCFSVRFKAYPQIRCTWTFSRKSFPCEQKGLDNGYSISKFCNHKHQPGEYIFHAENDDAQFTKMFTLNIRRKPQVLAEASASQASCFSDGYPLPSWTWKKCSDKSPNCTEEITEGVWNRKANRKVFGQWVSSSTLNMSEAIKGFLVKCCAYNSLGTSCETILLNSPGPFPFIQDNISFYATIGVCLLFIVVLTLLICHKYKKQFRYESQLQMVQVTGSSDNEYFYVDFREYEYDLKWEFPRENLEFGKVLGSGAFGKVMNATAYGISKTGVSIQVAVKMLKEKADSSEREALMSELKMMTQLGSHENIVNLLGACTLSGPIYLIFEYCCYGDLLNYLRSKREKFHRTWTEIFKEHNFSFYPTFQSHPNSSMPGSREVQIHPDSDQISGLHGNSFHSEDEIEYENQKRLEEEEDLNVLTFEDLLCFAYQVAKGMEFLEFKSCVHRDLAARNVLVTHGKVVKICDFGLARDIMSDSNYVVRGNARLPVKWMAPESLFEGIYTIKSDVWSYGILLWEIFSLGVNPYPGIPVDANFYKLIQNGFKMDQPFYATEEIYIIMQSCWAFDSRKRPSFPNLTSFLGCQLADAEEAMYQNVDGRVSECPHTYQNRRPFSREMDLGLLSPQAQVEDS
Description: Inhibition human recombinant FLT3 using Poly(Ala,Glu,Lys,Tyr)peptide substrate in presence of [gamma-32P]-ATP

[13] = biological target: T1, Tyrosine-protein kinase ABL1
Description: Inhibition human recombinant Abl using Abtide peptide substrate in presence of [gamma-32P]-ATP

CC(Cn1ncc2c(NCc3cccc(F)c3)ncnc21)c1ccccc1 (centres undefined)
inhibition [1]: inactive

CSc1nc(NCc2ccccc2)c2cnn(CC(C)c3ccccc3)c2n1 (centres undefined)
inhibition [1]: inactive

CC(Cn1ncc2c(NCc3ccccc3)ncnc21)c1ccccc1 (centres undefined)
inhibition [1]: inactive

CC(Cn1ncc2c(NCc3ccc(F)cc3)ncnc21)c1ccccc1 (centres undefined)
inhibition [1]: inactive

CC(Cn1ncc2c(Nc3cccc(Cl)c3)ncnc21)c1ccccc1 (centres undefined)
inhibition [1]: inactive

CSc1nc(Nc2cccc(Cl)c2)c2cnn(CCc3ccccc3)c2n1
Papp at 5 h [2]: 34.3 nm/s
Ki [3]: 1.72 µM
Activity (SH-SY5Y [4]): tde
inhibition [1]: inactive
Ki [5]: 0.09 µM
Ki [6]: 6.5 µM
Activity (HS27): Toxic
remaining at 50 µM [7]: 99%

Clc1cccc(Nc2ncnc3c2cnn3CCc2ccccc2)c1
inhibition [1]: inactive

CC(Cn1ncc2c(NCc3ccccc3F)ncnc21)c1ccccc1 (centres undefined)
inhibition [1]: inactive

CSc1nc(Nc2cccc(Br)c2)c2cnn(CC(C)c3ccccc3)c2n1 (centres undefined)
permeability ([2]; pampa, pH 7.4, 5 h): 14.8 nm/s
Activity (SH-SY5Y [8]): Dose-dependent effect
Activity (SH-SY5Y [4]): tde
solubility [9]: < 0.01 µg/mL
IC50 (SH-SY5Y [10]): 0.8 µM
Activity (HS27): Toxic
remaining at 50 µM [7]: 95%

CSc1nc(Nc2cccc(Cl)c2)c2cnn(CC(Cl)c3ccccc3)c2n1 (centres undefined)
Papp at 5 h [2]: 56.6 nm/s
Activity (SH-SY5Y [11]): 75%
solubility [9]: 0.046 µg/mL (≈ 0.107 µM)
Ki [5]: 0.7 µM
remaining at 50 µM [7]: 91%

CSc1nc(Nc2ccccc2)c2cnn(CC(C)c3ccccc3)c2n1 (centres undefined)
Ki [3]: 3.87 µM
Ki (Focal adhesion kinase 1): Not Active
Activity (SH-SY5Y [4]): tde
inhibition [1]: inactive
Ki [5]: 0.025 µM
Ki [6]: 11.5 µM
IC50 (SH-SY5Y [10]): 0.73 µM
Activity (HS27): Toxic
Ki [12]: Not Active

ClC(Cn1ncc2c(NCc3ccccc3)ncnc21)c1ccccc1 (centres undefined)
Ki [5]: 3 µM
Ki [13]: 0.37 µM

CC(C)(C)n1nc(-c2ccc(Cl)cc2)c2c(N)ncnc21
IC50 (SH-SY5Y [10]): 6.1 µM

CSc1nc(Nc2cccc(Cl)c2)c2cnn(CC(C)c3ccccc3)c2n1 (centres undefined)
Ki [3]: 5 µM
Ki (Focal adhesion kinase 1): Not Active
Activity (SH-SY5Y [8]): Dose-dependent effect
Activity (SH-SY5Y [4]): tde
inhibition [1]: inactive
Ki [5]: 0.025 µM
Ki [6]: 6.6 µM
IC50 (SH-SY5Y [10]): 0.33 µM
Activity (HS27): Toxic
Ki [12]: Not Active
